Test results as given in the NIST ThermoML archive (doi:10.1016/j.jct.2019.03.025).

Assay: xn = mol fraction of the nth substance listed
Settings: Liquid, Vibrating tube method

Cc1cccc(C)c1 [1,3-dimethylbenzene] + CCCCCCCCCC
mass density [kg/m3]
Settings	x2 = 0	x2 = 0.2005	x2 = 0.3999	x2 = 0.603	x2 = 0.7998
293.15 K, 100 kPa	864.2	825.1	793.6	768.3	748.3
293.15 K, 1000 kPa	864.4	825.4	794.1	768.8	748.9
293.15 K, 3000 kPa	865.8	826.8	795.4	770.2	750.2
293.15 K, 5000 kPa	866.9	828	796.6	771.4	751.5
293.15 K, 10000 kPa	870.5	831.7	800.4	775.2	755.2
293.15 K, 15000 kPa	873.8	835.1	803.7	778.6	758.6
293.15 K, 20000 kPa	877	838.3	807	781.8	761.8
293.15 K, 25000 kPa	880.2	841.5	810.2	785	765.1
293.15 K, 30000 kPa	883.2	844.5	813.3	788.1	768.2
293.15 K, 35000 kPa	886	847.3	816.1	790.9	771
293.15 K, 40000 kPa	888.7	850.1	818.8	793.7	773.8
293.15 K, 50000 kPa	894.4	855.8	824.5	799.4	779.4
293.15 K, 60000 kPa	899.1	860.6	829.2	804	784.1
303.15 K, 100 kPa	855	816	784.6	759.3	739.4
303.15 K, 1000 kPa	855.4	816.7	785.6	760.5	740.8
303.15 K, 3000 kPa	857.5	818.7	787.4	762.3	742.4
303.15 K, 5000 kPa	858.8	820.1	789	763.9	744
303.15 K, 10000 kPa	862.3	823.8	792.5	767.5	747.7
303.15 K, 15000 kPa	865.8	827.3	796.2	771.2	751.4
303.15 K, 20000 kPa	869	830.6	799.5	774.4	754.7
303.15 K, 25000 kPa	872.2	833.8	802.7	777.8	758
303.15 K, 30000 kPa	875.3	837	805.9	780.9	761.2
303.15 K, 35000 kPa	878.2	840.1	809	784.1	764.3
303.15 K, 40000 kPa	881	842.9	811.8	786.9	767.1
303.15 K, 50000 kPa	886.7	848.6	817.5	792.6	772.8
303.15 K, 60000 kPa	892	853.9	822.7	797.8	778
313.15 K, 100 kPa	846.7	808.1	777	752	732.3
313.15 K, 1000 kPa	846.9	808.4	777.4	752.5	732.8
313.15 K, 3000 kPa	848.6	810.1	779.1	754.1	734.4
313.15 K, 5000 kPa	850.1	811.7	780.8	755.8	736.1
313.15 K, 10000 kPa	854	815.7	784.7	759.8	740.2
313.15 K, 15000 kPa	857.6	819.4	788.5	763.6	743.9
313.15 K, 20000 kPa	861.1	822.9	792.1	767.2	747.6
313.15 K, 25000 kPa	864.5	826.4	795.6	770.7	751.1
313.15 K, 30000 kPa	867.7	829.7	798.8	773.9	754.3
313.15 K, 35000 kPa	870.9	833	802.1	777.2	757.6
313.15 K, 40000 kPa	873.8	835.9	805	780.1	760.5
313.15 K, 50000 kPa	879.8	841.9	810.9	786.1	766.4
313.15 K, 60000 kPa	885.1	847.2	816.2	791.3	771.6
323.15 K, 100 kPa	837.7	799.4	768.6	743.9	724.4
323.15 K, 1000 kPa	838.6	800.3	769.5	744.7	725.2
323.15 K, 3000 kPa	840.2	802	771.3	746.5	727
323.15 K, 5000 kPa	841.9	803.8	773.1	748.3	728.8
323.15 K, 10000 kPa	845.9	808	777.3	752.6	733.1
323.15 K, 15000 kPa	849.8	811.9	781.2	756.6	737.1
323.15 K, 20000 kPa	853.6	815.8	785.1	760.4	741
323.15 K, 25000 kPa	857	819.2	788.6	763.8	744.4
323.15 K, 30000 kPa	860.4	822.7	792.1	767.4	747.9
323.15 K, 35000 kPa	863.7	826	795.3	770.6	751.2
323.15 K, 40000 kPa	866.9	829.2	798.6	773.9	754.4
323.15 K, 50000 kPa	873	835.3	804.7	779.9	760.4
323.15 K, 60000 kPa	878.8	841.2	810.5	785.8	766.3
